Measured values published in US20260083751A1, “ALLOSTERIC MODULATORS OF ANDROGEN RECEPTOR COACTIVATOR RECRUITMENT FOR CRPC THERAPY” (University of Pittsburgh – Of the Commonwealth System of …, priority 2022, published 2026).

Key:
Assay type in all cases: cell-based
[1] = system: PC-3, DU-145, LNCaP, C4-2, and 22Rv1 PC cell lines; assay: Prostate cancer cell line growth inhibition assays, results stated across cell lines; details: for GI50s against all 5 PCa cell lines: all 5 cell lines, 72 h; for Relative potency in AR positive versus AR negative PC cell lines: 72 h growth inhibition; for GI50s against the 3 AR+ PCa cell lines: LNCaP, C4-2, 22Rv1
Protocol: Prostate Cancer Cell Line Growth Inhibition Assays: The PC-3, DU-145, LNCaP, C4-2, and 22Rv1 PC cell line growth inhibition assays have been described previously (Fancher et al., Assay Drug Dev Technol. 2016, 14:453-477; Fancher et al., Assay Drug Dev Technol. 2019, 17:364-386). On day 1, each PC cell line was harvested, counted, and seeded into two 384-well assay plates, a time zero (T0) and a time 72 h (T72) plate. PC cell lines were all seeded at 1,000 cells per well in 45 μL of tissue culture media in uncoated white clear bottom 384-well assay plates (VWR, #82050-076) using a Matrix electronic multichannel pipette (Thermo Fisher Scientific, Waltham, MA) and cultured overnight at 37° C., 5% CO2, and 95% humidity. On day 2, 25 μL of the CellTiter-Glo® (CTG) (Promega Corporation, Madison, WI) detection reagent was dispensed into the wells of the TO assay plate using a Matrix electronic multichannel pipette, and the RLUs were captured on the SpectraMax® M5e (Molecular Devices LLC, Sunnyvale, CA) microtiter plate reader. Also on day 2, 5 μL of compounds were transferred into the test wells of the T72 384-well assay plates which were returned to the incubator for 72 h. Control wells received DMSO alone. On day 5, 25 μL of the CTG detection reagent was dispensed into the wells of the T72 assay plate using a Matrix electronic multichannel pipette, and the RLU's were captured on the SpectraMax® M5e microtiter plate reader platform.
(§1) For the 96-well AR-LBD H^3-DHT radioligand binding assay, eight minimum and maximum plate control wells were utilized to normalize the data. For the PC cell line growth inhibition assays the DMSO control data from the TO and T72 assay plates was used to assess the dynamic range of the T0 to T72 cell growth, and to calculate S:B ratios and Z′-factor coefficient statistics for the assay signal window (T0 to T72). To normalize the 72 h compound exposure PC growth inhibition data, the signals from the compound treated wells were processed and expressed as % of the T72 DMSO plate controls. IC50 and GI50 values for each of the bioassays were calculated using GraphPad Prism 9 software to plot and fit data to curves using the Sigmoidal dose response variable slope equation Y=Bottom+[Top-Bottom]/[1+10^(Log EC50−X)*HillSlope].

[2] = target: T1, AR-TIF2 PPI (Homo sapiens, UniProt P10275); assay: AR-TIF2 PPIB HCS assay: inhibition of DHT-induced AR-TIF2 PPI formation (compound then DHT); details: U-2 OS cells
T1 construct: AR-LBD residues (662-919) were incorporated into one biosensor; expressed in transfected cells; host or cells: U-2 OS osteosarcoma cells, coinfected with recombinant adenoviruses
T1 sequence (P10275 662-919): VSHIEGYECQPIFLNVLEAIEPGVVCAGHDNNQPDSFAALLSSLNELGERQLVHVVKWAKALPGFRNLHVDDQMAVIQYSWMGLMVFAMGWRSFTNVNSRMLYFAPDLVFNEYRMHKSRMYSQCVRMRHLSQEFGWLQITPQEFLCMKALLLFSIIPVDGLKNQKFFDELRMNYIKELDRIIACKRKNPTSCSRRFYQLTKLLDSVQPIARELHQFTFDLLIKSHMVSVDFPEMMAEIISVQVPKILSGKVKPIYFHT
Protocol: (§2) AR-TIF2 Protein-Protein Interaction Biosensor Assay: The AR-TIF2 PPIB HCS assay was performed in U-2 OS osteosarcoma cells as described previously (Fancher et al., Assay Drug Dev Technol. 2016, 14:453-477; Fancher et al., Assay Drug Dev Technol. 2018, 16:297-319; Hua et al., Assay Drug Dev Technol. 2014, 12:395-418; Hua et al., Methods Mol Biol. 2018, 1683:211-227). Briefly, U-2 OS cells were coinfected with recombinant adenovirus biosensor expression constructs and seeded at 2,500 cells per well in 384-well collagen-coated microplates (Greiner Bio-One #781956) and plates were incubated overnight at 37° C. in 5% CO2 and 95% humidity. […] After the appropriate time, assay plates were fixed by transfer of 50 μL of pre-warmed (37° C.) 7.4% formaldehyde and 2 μg/mL Hoechst 33342 in PBS and incubation at room temperature for 30 minutes. Liquid was aspirated, plates were washed twice with 85 μL PBS, leaving the final wash in the plate. Plates were sealed with adhesive aluminum plate seals, and fluorescent images of three fields of view were acquired in the DAPI (Hoechst stained nuclei), FITC (TIF2-GFP) and Texas Red (AR-RFP) channels on an ImageXpress® Micro (IXM) automated HCS platform (Molecular Devices LLC, Sunnyvale, CA) using a 10× Plan Fluor 0.3 NA objective. Images were analyzed using the Translocation Enhanced (TE) image analysis module of the MetaXpress® software (Molecular Devices, LLC, San Jose, CA) as described previously (Fancher et al., Assay Drug Dev Technol. 2016, 14:453-477; Fancher et al., Assay Drug Dev Technol. 2018, 16:297-319; Hua et al., Assay Drug Dev Technol. 2014, 12:395-418; Hua et al., Methods Mol Biol. 2018, 1683:211-227).
as §1
(§3) A positional AR-TFI2 protein-protein interaction biosensor (PPIB) assay was used to identify small molecules that inhibited DHT-induced formation of AR-TIF2 PPIs and/or disrupted pre-existing AR-TIF2 PPIs (Fancher et al., Assay Drug Dev Technol 2016, 14(8):453-477; Fancher et al., Assay Drug Dev Technol 2018, 16(6):297-319; Hua et al., Assay Drug Dev Technol 2014, 12:395-418; Hua et al., Methods Mol biol 2018, 1683:211-227). AR-LBD residues (662-919) were incorporated into one biosensor and TIF2 residues (725-840) containing the 3rd NR box LXXLL motif into the second interacting biosensor partner (Id.) The AR-TIF2 PPIB recapitulates the orthosteric ligand (OSL)-induced translocation of AR from the cytoplasm into the nucleus where PPIs with TIF2 result in colocalization of both biosensors in the nucleolus. Using three libraries, a total of 143,535 compounds were screened—a 10,000-compound ChemDiv PPI focused diversity library, a 50,000-compound ChemBridge diversity library, and a 83,535-compound library provided by the NCI's Chemical Biology Consortium. The 10K and 50K diversity libraries were subsets of 142K and 810K parent libraries, enabling screening of a representative subset of >1×10^6 compounds. AR-TIF2 PPI inhibitor and disruptor actives were confirmed in the HCS assay and counter screens designed to identify and exclude nuisance/interference or non-selective compounds (Fancher et al., Assay Drug Dev Technol 2018, 16(6):297-319). […]

[3] = target: T1, AR-TIF2 PPI; assay: AR-TIF2 PPIB HCS assay: disruption of preformed DHT-induced AR-TIF2 PPI complexes (DHT then compound); details: U-2 OS cells
Protocol: as §2, §1, §3

[4] = 25 nM DHT, read-out: Inhibition DHT-induced AR-TIF2 PPI Formation IC50
[5] = compound then DHT, read-out: C then D IC50
[6] = 25 nM DHT, read-out: Disruption of DHT-induced AR-TIF2 PPIs IC50
[7] = DHT then compound, read-out: D then C IC50

GI50s against all 5 PCa cell lines [1] [µM] | IC50 [2, 4] [µM] | IC50 [2, 5] [µM] | IC50 [3, 6] [µM] | IC50 [3, 7] [µM] | GI50s against the 3 AR+ PCa cell lines [1] [µM] | GI50s in AR negative cell lines ([1]; PC-3 and DU-145) [µM] | GI50s against 2 AR+ PCa cell lines ([1]; 2 AR+ cell lines, not named) [µM] | GI50s against 4 PCa cell lines ([1]; 4 cell lines, not named) [µM] | SMILES | Relative potency in AR positive versus AR negative PC cell lines [1]
29 to 70 | 5.38 | 5.64 | 24.8 | – | – | – | – | – | Cc1ccccc1-c1cc(O)c2c(c1)CN(c1nc(C(N)=O)cs1)CCO2 [Compound S1-1] | –
– | – | 14.5 | – | 63 | – | – | – | – | Cc1nc(N)cc(N2CCOc3c(O)cc(-c4ccccc4C)cc3C2)n1 [Compound S1-2] | equipotent against all 5 PC cell lines
44 to 75 | – | 30.5 | – | 41.8 | – | – | – | – | Cc1ccccc1-c1cc(O)c2c(c1)CN(c1nccs1)CCO2 [Compound S1-3] | differential cytotoxicity in AR positive PC cell lines
– | > 100 | > 100 | > 100 | > 100 | – | – | – | – | Cc1ccccc1-c1cc(O)c2c(c1)CN(c1cc(N)ncn1)CCO2 [Compound S1-4] | equipotent against all 5 PC cell lines
> 100 | – | 26.2 | > 100 | > 100 | – | – | – | – | COc1cc(-c2ccc(C)s2)cc2c1OCCN(c1nc(C(N)=O)cs1)C2 [Compound S1-5] | –
– | 0.62 | – | 5.64 | 5.8 | 14 to 19 | – | – | – | Cc1nsc(NC(=O)N2CCC(Sc3ccccc3C)CC2)n1 [Compound S2-6] | –
30 to 94 | > 100 | > 100 | > 100 | > 100 | 30 to 64 | ~94 | – | – | Cc1nsc(NC(=O)N2CCC(Cn3ccnc3)CC2)n1 [Compound S2-7] | –
– | 3.11 | 3.25 | 26.1 | – | – | – | – | – | Cc1c(-c2ccccc2F)[nH]c2ccc(CNC(=O)CCc3cn[nH]c3)cc12 [Compound S3-11] | differential cytotoxicity in AR positive PC cell lines
– | – | 5.13 | – | 24.7 | – | – | – | – | Cc1c(-c2ccccc2F)[nH]c2ccc(CNC(=O)CCc3cnccn3)cc12 [Compound S3-12] | roughly equipotent against all 5 PC cell lines
– | – | 7.98 | – | 37.6 | – | – | 68 to 70 | – | CC(=O)NCCC(=O)NCc1ccc2[nH]c(-c3ccccc3F)c(C)c2c1 [Compound S3-13] | roughly equipotent against all 5 PC cell lines
– | – | 2.42 | – | 16 | 30 to 100 | – | – | – | Cc1c(-c2ccccc2F)[nH]c2ccc(CNC(=O)c3ccc(CO)o3)cc12 [Compound S3-14] | differential cytotoxicity in AR positive PC cell lines
– | – | 6.7 | – | 30.6 | – | – | – | – | Cc1c(-c2ccc(F)cc2)[nH]c2ccc(CNC(=O)c3ccc(CO)o3)cc12 [Compound S3-15] | roughly equipotent against all 5 PC cell lines
– | – | 3.87 | – | 8.8 | – | – | – | – | Cc1cccc2c(-c3ccc(O)c(F)c3)c[nH]c12 [Compound S3-17] | roughly equipotent against all 5 PC cell lines
– | ~36 | 36.1 | > 100 | > 100 | – | – | – | 13 to 55 | CNC(=O)c1ccc(-c2c[nH]c3c(C)cccc23)cc1 [Compound S3-21] | differential cytotoxicity in AR positive PC cell lines
